ChEMBL document CHEMBL1131286, “Design and synthesis of m1-selective muscarinic agonists: (R)-(-)-(Z)-1-Azabicyclo[2.2.1]heptan-3-one, O-(3-(3'-methoxyphenyl)-2-propynyl)oxime maleate (CI-1017), a functionally m1-selective muscarinic agonist” (J Med Chem, 1998)

Legend:
[1] = target: T1, Muscarinic acetylcholine receptor M1 (Homo sapiens, UniProt P11229); assay: biochemical; assay type: cell-based, CHO
T1 sequence (P11229 whole entry): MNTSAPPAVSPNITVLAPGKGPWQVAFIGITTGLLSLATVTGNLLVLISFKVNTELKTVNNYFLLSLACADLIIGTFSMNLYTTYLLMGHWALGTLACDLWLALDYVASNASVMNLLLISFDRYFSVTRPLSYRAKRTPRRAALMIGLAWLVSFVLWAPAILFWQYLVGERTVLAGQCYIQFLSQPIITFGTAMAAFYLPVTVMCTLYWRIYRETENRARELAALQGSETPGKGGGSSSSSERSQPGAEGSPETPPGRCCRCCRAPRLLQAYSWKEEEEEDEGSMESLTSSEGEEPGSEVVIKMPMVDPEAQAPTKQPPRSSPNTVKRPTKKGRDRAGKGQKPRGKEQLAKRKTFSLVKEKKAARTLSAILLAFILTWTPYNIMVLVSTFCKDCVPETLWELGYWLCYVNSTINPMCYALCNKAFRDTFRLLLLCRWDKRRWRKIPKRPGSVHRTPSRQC
Description: Binding affinity of [3H]-QNB to CHO cells expressing human Muscarinic acetylcholine receptor M1

[2] = target: Muscarinic acetylcholine receptor M3 (Homo sapiens) (UniProt P20309); assay: Inositol phosphate(PI) accumulation in CHO cells expressing Muscarinic acetylcholine receptor M3 as maximal response at 100 uM relative to carbachol; assay type: functional, cell-based
[3] = target: T2, Muscarinic acetylcholine receptor M5 (Homo sapiens) (UniProt P08912); assay: Inositol phosphate(PI) accumulation in CHO cells expressing Muscarinic acetylcholine receptor M5 as maximal response at 100 uM relative to carbachol; assay type: functional, cell-based
T2 sequence (whole entry): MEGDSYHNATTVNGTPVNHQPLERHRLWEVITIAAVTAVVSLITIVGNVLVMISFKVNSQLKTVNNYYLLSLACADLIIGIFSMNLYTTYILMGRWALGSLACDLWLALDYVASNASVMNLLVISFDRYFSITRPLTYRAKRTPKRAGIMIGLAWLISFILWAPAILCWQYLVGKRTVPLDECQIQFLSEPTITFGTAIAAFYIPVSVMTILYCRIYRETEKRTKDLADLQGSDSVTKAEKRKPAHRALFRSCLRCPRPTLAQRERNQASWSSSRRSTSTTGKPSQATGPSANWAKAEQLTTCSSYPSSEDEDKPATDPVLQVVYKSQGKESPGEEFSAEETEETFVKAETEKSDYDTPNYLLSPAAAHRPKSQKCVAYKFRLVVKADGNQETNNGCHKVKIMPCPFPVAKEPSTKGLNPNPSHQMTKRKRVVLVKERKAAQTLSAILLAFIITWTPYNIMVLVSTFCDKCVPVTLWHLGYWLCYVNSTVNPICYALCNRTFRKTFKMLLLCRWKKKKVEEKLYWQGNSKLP

[4] = target: T3, Muscarinic acetylcholine receptor M2 (Homo sapiens, UniProt P08172); assay: Binding affinity of [3H]QNB to CHO cells expressing human Muscarinic acetylcholine receptor M2; assay type: cell-based
T3 sequence (P08172 whole entry): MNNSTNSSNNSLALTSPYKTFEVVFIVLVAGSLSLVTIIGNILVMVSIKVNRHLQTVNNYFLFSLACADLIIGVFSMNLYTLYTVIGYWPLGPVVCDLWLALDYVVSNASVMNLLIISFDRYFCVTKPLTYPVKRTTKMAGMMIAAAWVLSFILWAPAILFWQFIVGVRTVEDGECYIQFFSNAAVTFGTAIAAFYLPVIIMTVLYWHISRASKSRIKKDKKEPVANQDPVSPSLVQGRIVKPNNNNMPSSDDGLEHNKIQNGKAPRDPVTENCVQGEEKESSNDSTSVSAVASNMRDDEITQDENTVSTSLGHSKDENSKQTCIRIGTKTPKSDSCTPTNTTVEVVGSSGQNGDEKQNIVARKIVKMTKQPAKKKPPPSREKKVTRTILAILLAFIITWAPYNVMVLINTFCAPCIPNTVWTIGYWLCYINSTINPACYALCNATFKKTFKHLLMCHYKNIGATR

[5] = target: T4, Muscarinic acetylcholine receptor M1 (Homo sapiens) (UniProt P11229); assay: Stimulation of inositol phosphate(PI) accumulation in CHO cells expressing Muscarinic acetylcholine receptor M1 as maximal response at 100 uM relative to carbachol; assay type: functional, cell-based
T4 sequence (whole entry): T1 sequence (P11229 whole entry)

[6] = target: Muscarinic acetylcholine receptor (Rattus norvegicus) (UniProt P08482+P08483+P08485+P08911+P10980); assay: Ratio of QNB binding to CMD binding was evaluated; assay type: protein assay
[7] = target: Muscarinic acetylcholine receptor; assay: Muscarinic acetylcholine receptor binding assay was conducted using [3H]cis-methyldioxolane (CMD) to label agonist sites in membrane preparations from rat neocortex
[8] = target: Muscarinic acetylcholine receptor; assay: Muscarinic acetylcholine receptor binding assay was conducted using [3H]quinuclidinyl benzilate (QNB) to label antagonist sites in membrane preparations from rat neocortex
[9] = target: T5, Muscarinic acetylcholine receptor M4 (Homo sapiens) (UniProt P08173); assay: Maximal response obtained for each drug normalized to effect of carbachol in Muscarinic acetylcholine receptor M4; assay type: functional
T5 sequence (whole entry): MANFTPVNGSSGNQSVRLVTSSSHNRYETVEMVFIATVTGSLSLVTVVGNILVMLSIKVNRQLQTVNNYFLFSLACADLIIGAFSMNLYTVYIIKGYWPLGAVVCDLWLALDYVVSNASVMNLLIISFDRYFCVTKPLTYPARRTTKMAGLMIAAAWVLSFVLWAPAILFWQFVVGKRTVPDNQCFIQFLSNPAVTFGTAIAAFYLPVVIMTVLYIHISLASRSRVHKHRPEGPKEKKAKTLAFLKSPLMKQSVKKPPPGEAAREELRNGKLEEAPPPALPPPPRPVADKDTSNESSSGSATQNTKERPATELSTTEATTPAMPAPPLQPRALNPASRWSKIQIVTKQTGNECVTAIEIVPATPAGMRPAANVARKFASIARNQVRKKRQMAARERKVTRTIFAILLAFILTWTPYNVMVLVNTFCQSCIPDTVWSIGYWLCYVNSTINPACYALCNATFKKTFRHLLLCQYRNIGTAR

[10] = target: Muscarinic acetylcholine receptor M3 (Homo sapiens) (UniProt P20309); assay: Maximal response obtained for each drug normalized to effect of carbachol in Muscarinic acetylcholine receptor M3; assay type: functional
[11] = target: T6, Muscarinic acetylcholine receptor M2 (Homo sapiens) (UniProt P08172); assay: Amplification of transfected NIH3T3 cells was measured in Muscarinic acetylcholine receptor M2 required to produce half maximal effect; assay type: functional, cell-based
T6 sequence (whole entry): T3 sequence (P08172 whole entry)

[12] = target: Muscarinic acetylcholine receptor M3 (Homo sapiens) (UniProt P20309); assay: Stimulations of inositol phosphate(PI) accumulation in transfected CHO cells in Muscarinic acetylcholine receptor M3 values are the maximal response obtained from the compound tested at 100 uM normalized to the effect of carbachol.; assay type: functional, cell-based
[13] = target: T2, Muscarinic acetylcholine receptor M5 (Homo sapiens); assay: Maximal response obtained for each drug normalized to effect of carbachol in Muscarinic acetylcholine receptor M5; assay type: functional
[14] = target: T2, Muscarinic acetylcholine receptor M5 (Homo sapiens); assay: Amplification of transfected NIH3T3 cells was measured in Muscarinic acetylcholine receptor M5 required to produce half maximal effect; assay type: functional, cell-based
[15] = target: T2, Muscarinic acetylcholine receptor M5 (Homo sapiens); assay: Stimulations of inositol phosphate(PI) accumulation in transfected CHO cells in Muscarinic acetylcholine receptor M5 values are the maximal response obtained from the compound tested at 100 uM normalized to the effect of carbachol.; assay type: functional, cell-based
[16] = target: T6, Muscarinic acetylcholine receptor M2 (Homo sapiens); assay: Maximal response obtained for each drug normalized to effect of carbachol in Muscarinic acetylcholine receptor M2; assay type: functional
[17] = target: T4, Muscarinic acetylcholine receptor M1 (Homo sapiens); assay: Maximal response obtained for each drug normalized to effect of carbachol in Muscarinic acetylcholine receptor M1; assay type: functional
[18] = target: T4, Muscarinic acetylcholine receptor M1 (Homo sapiens); conditions: NIH3T3
Description: Amplification of transfected NIH3T3 cells was measured in Muscarinic acetylcholine receptor M1 required to produce half maximal effect

[19] = target: T4, Muscarinic acetylcholine receptor M1 (Homo sapiens); conditions: CHO
[20] = target: Muscarinic acetylcholine receptor M3 (Homo sapiens) (UniProt P20309); conditions: NIH3T3
Description: Amplification of transfected NIH3T3 cells was measured in Muscarinic acetylcholine receptor M3 required to produce half maximal effect

Chain of Muscarinic acetylcholine receptor M3 (Homo sapiens) (P20309 whole entry, looked up): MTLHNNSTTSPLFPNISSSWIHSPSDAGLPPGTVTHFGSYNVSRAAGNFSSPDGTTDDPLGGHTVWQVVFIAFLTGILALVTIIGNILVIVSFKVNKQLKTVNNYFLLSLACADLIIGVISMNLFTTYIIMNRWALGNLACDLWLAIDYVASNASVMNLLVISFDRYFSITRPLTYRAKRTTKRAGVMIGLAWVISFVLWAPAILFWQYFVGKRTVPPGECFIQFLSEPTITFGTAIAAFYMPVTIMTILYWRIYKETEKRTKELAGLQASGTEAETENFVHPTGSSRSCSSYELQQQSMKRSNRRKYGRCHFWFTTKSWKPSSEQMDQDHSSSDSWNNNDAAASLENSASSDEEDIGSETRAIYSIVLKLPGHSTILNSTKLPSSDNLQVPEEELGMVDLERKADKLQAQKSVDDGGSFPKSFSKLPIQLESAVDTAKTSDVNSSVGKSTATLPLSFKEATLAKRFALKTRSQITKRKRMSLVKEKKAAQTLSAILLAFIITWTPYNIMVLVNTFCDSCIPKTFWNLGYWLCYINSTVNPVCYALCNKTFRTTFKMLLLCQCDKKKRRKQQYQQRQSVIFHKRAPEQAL

SMILES | IC50 [1] | CCh [3] | IC50 [4] | CCh [5] | Ratio [6] | IC50 [7] | IC50 [8] | other results
Fc1cccc(C#CCO/N=C2\CN3CCC2C3)c1 (configuration not stated) | 9.85 µM | 9% | 47.9 µM | 54% | 132 |  |  | CCh [2]: 12%
C#C/C(C)=C/CO/N=C1\CN2CCC1C2 (configuration not stated) | 2.59 µM |  | 6.01 µM |  | 480 | 0.00429 µM | 2.06 µM | 
C#CCC#CCC#CCO/N=C1\CN2CCC1C2 (configuration not stated) |  |  |  |  | 119 | 0.00804 µM | 0.958 µM | 
C(#Cc1ccsc1)CO/N=C1\CN2CCC1C2 (configuration not stated) | 4.84 µM | 13% | 15.2 µM | 54% | 163 | 0.0165 µM | 2.69 µM | CCh [2]: 19%
C#CCC#CCO/N=C1\CN2CCC1C2 (configuration not stated) | 8.83 µM |  | 8.07 µM |  | 402 | 0.022 µM | 8.834 µM | 
Cc1ccc(C#CCO/N=C2\CN3CCC2C3)cc1 (configuration not stated) | 14.1 µM |  | 38.6 µM |  | 124 |  |  | 
Clc1ccccc1C#CCO/N=C1\CN2CCC1C2 (configuration not stated) | 1.12 µM | 4% | 4.01 µM | 32% | 107 |  |  | CCh [2]: 6%
C#C/C=C/CO/N=C1\CN2CCC1C2 (configuration not stated) | 0.216 µM |  | 0.519 µM |  | 398 | 0.0347 µM | 13.8 µM | 
Fc1ccc(C#CCO/N=C2\CN3CCC2C3)cc1 (configuration not stated) | 5.46 µM | 13% | 27.2 µM | 57% | 204 |  |  | CCh [2]: 10%
C=CCO/N=C1\CN2CCC1C2 (configuration not stated) | 4.05 µM |  | 10.8 µM |  | 91.7 | 0.052 µM | 4.77 µM | 
C#CCO/N=C1\CN2CCC1C2 (configuration not stated) | 4.89 µM | 42% | 6.03 µM | 95% | 1240 | 0.0035 µM | 4.35 µM | 
C#C/C(C)=C\CO/N=C1\CN2CCC1C2 (configuration not stated) | 1.58 µM |  | 1.9 µM |  | 790 | 0.00102 µM | 0.806 µM | 
COc1ccccc1C#CCO/N=C1\CN2CCC1C2 (configuration not stated) | 16.6 µM |  | 69.3 µM |  | 80.7 |  |  | 
CO/N=C1\CN2CCC1C2 (configuration not stated) | 26.9 µM |  | 16.8 µM |  | 1340 | 0.0181 µM | 24.2 µM | 
C(#Cc1cccs1)CO/N=C1\CN2CCC1C2 (configuration not stated) | 1.62 µM |  | 8.9 µM | 86% | 173 | 0.0135 µM | 2.33 µM | 
O=[N+]([O-])c1cccc(C#CCO/N=C2\CN3CCC2C3)c1 (configuration not stated) | 15.1 µM |  | 46.6 µM |  | 227 |  |  | 
C/C(C#Cc1ccccc1)=C\CO/N=C1\CN2CCC1C2 (configuration not stated) | 1.09 µM |  | 7.93 µM |  | 7.93 |  |  | 
Clc1ccc(C#CCO/N=C2\CN3CCC2C3)cc1 (configuration not stated) | 4.01 µM | 0% | 24.7 µM | 48% | 119 |  |  | 
Fc1ccccc1C#CCO/N=C1\CN2CCC1C2 (configuration not stated) | 4.03 µM | 6% | 20.8 µM | 45% | 160 |  |  | CCh [2]: 2%
COc1cccc(C#CCO/N=C2\CN3CC[C@H]2C3)c1 |  |  |  |  |  |  |  | CCh [9]: 65%; CCh [10]: 57%; ED50 [11]: 1.53 µM; Stimulation [12]: 5.2%; CCh [13]: 60%; ED50 [14]: 2.59 µM; Stimulation [15]: 1.9%; CCh [16]: 33%; CCh [17]: 51%; ED50 [18]: 1.6 µM; ED50 [19]: 3.7 µM; ED50 [20]: 4.57 µM
